Measured values: patent publication US20230398051A1, “Anti-Microbial Skin-Care Composition Comprising Beta-Glucan and Natural Oil” (LANTMÄNNEN OATS AB, priority 2020, published 2023)

Legend:
L. monocytogenes = test: Log reduction according to EN 1276; type: cell-based
S. typhimurium = test: Log reduction according to EN 1276; type: cell-based
E. coli = test: Log reduction according to EN 1276; type: cell-based
Excerpt: (§1) As shown in the Examples herein, the skin-care composition is active against bacteria and due to its content of hydrogen peroxide and lactate/lactic it is contemplated to be active against viruses as well, i.e. functioning as an anti-microbial composition. It has been shown that a synergistic effect between hydrogen peroxide and lactic acid in bacteria such as E. coli, P. aeruginosa, E. hirae, S. aureus, L. monocytogenes and S. typhimurium, see the following tables: […]

S. aureus = test: Log reduction according to EN 1276; type: cell-based
Excerpt: as §1

P. aeruginosa = test: Log reduction according to EN 1276; type: cell-based
E. hirae = test: Log reduction according to EN 1276; type: cell-based
bacteria, viruses = conditions: 0.5% hydrogen peroxide; cited from earlier work
spores = conditions: cited from earlier work
bacteria = conditions: cited from earlier work

OO [1% H2O2, hydrogen peroxide]
Log reduction according to EN 1276 (L. monocytogenes): 0.6 | Log reduction according to EN 1276 (S. typhimurium): 0.5

CC(O)C(=O)O (stereo not shown) [1% LA, lactic acid]
Log reduction according to EN 1276 (L. monocytogenes): 3.8 | Log reduction according to EN 1276 (S. typhimurium): >5

CC(O)C(=O)O (stereo not shown) [1% LA, pH 3, lactic acid]
Log reduction according to EN 1276 (L. monocytogenes): 2.2 | Log reduction according to EN 1276 (S. typhimurium): >5

OO [3% H2O2, hydrogen peroxide]
Log reduction according to EN 1276 (E. coli): >5 | Log reduction according to EN 1276 (S. aureus): <1 | Log reduction according to EN 1276 (P. aeruginosa): >5 | Log reduction according to EN 1276 (E. hirae): 0.1

OO [hydrogen peroxide]
time in which bactericidal and virucidal activity was demonstrated (bacteria, viruses): 1 min | concentration that will work against most spores (spores): 3%

CC(O)C(=O)O (stereo not shown) [lactic acid]
concentration regarded as bactericidal (bacteria): ≥ 0.25 % w/w
